In patent publication US20050272649A1, “Conjoint administration of morphogens and ACE inhibitors in treatment of chronic renal failure” (priority 2002, published 2005):
Entries after “also recorded” stand apart in the source; their conditions may differ. Read-outs that look alike come from different tables or passages of the source.

Columns and labels:
[1] = test system: streptozotocin diabetic Sprague-Dawley rats; assay type: in vivo; settings: for GFR (ml/min/100 g bw): inulin clearance at 32 weeks; for mesangial matrix accumulation (in words): PAS / Trichrome histology at 32 weeks; for kidney weight / renal hypertrophy (in words): treatment weeks 16-32, versus vehicle-treated diabetic rats
Experimental: A long-term streptozotocin model of diabetic nephropathy was used to test and compare the therapeutic actions of BMP-7 with those of Enalapril. The study design was a treatment protocol beginning at 16 weeks when glomerular hypertrophy and proteinuria were established. The effects of therapy with BMP-7 (10, 30, or 100 μg/kg iv, biw) were compared to a maximal dose of Enalapril (20 mg/kg) and to a vehicle control. […] The GFR of 32 week diabetic Enalapril treated rats was 0.58±0.06 (not significant compared to vehicle treated and sham injected rats 0.55±0.02).
Animals: Female Sprague-Dawley rats 10 weeks of age weighing 190-220 g were used. Animals were allowed free access to standard rat chow and to tap water. Diabetes mellitus was induced by a single tail-vein injection of Streptozotocin (STZ 62 mg/kg of body weight, Sigma chemical company, St. Louis, Mo.) dissolved in normal saline at day 0. The diabetic state was confirmed 72 hours later by the determination of blood glucose concentration>300 mg/dl. From day 3, all the diabetic rats received daily subcutaneous injections of 1.0-7.0 u human recombinant long-acting insulin injection (Eli Lilly & Co., Indianapolis, Ind.) as required to maintain the blood glucose concentration between 300-500 mg/dl. Tail blood glucose levels were measured twice a week with an Accu—Chek™ Advantage meter (Roche Diagnostic Corporation, Indianapolis, Ind.). Body weights were taken once a week. Food and water intake were monitored daily.
Renal hypertrophy was well developed at 16 weeks prior to treatment with vehicle, BMP-7, or enalapril. […], animals were divided into 8 groups. Group 1 were 16 weeks of DM. Group 2 were 16 weeks normal controls. Group 3 DM animals were treated with tail-vein injection of vehicle twice a week for 16 weeks. Group 4, Group 5, and Group 6 were DM animals treated with tail-vein injections of BMP-7 100, 30, and 10 μg/kg body weight respectively twice a week for 16 weeks. Group 7 were treated with Enalapril 20 mg/kg through the drinking water for 16 weeks. […] Group 1 and Group 2 animals were sacrificed at 16 weeks. The others were sacrificed at 32 weeks. All treatments began at 16 weeks and continued through 32 weeks. Glomerular filtration rate (GFR), urine albumin excretion, kidney weight, glomerular area, mesangial matrix area, interstitial volume, monocyte and macrophage infiltration, thickness of glomerular basement membrane (GBM) and glomerulosclerosis were measured.
Renal Function: In all animals, glomerular filtration rate (GFR) was measured as the clearance of inulin. Rats were anesthetized with a Ketamine/Xylozine cocktail. A catheter was inserted into the femoral vein under a dissecting microscope for infusion. Another catheter was placed into the femoral artery for collecting blood samples. Urine was collected by bladder cannulation.
After the completion of surgery, a bolus of 2 ml/kg of 3% inulin (Cypros Pharmaceutical Corp, W. Carlsbad, Calif.) and 0.2% p-aminohippurate (PAH) in normal saline was infused as a priming load, followed by a sustaining infusion of the same solution at the rate of 8 ml/h·kg. Urine collection was initiated for three 20-minute collection periods after an hour of equilibration. An arterial blood sample was obtained during each clearance period. Plasma and urine were analyzed for inulin.
Urine volume was measured and urinary protein concentration was determined with a Bio-Rad protein assay.
Preparation of Kidneys: After the clearance studies, the rats were euthanized. Both kidneys were rapidly removed and placed in ice-cold phosphate buffered saline (PBS). Kidneys were weighed and then sliced on a cold glass plate. Two 2 mm coronal sections were immersed in Histochoice and in 10% buffered formalin. Kidney sections were embedded in paraffin and cut at 3 μm and stained with hematoxylin and eosin, Gomori's Trichrome and periodic acid Schiff (PAS).
Renal Morphology: The morphometric analysis was done in a blind manner. […]

[2] = test system: streptozotocin diabetic Sprague-Dawley rats; assay type: in vivo; settings: preliminary / unpublished studies
hypertension = settings: enalapril 20 mg per day; three-month study; cited from earlier work
[3] = Enalapril 20 mg/kg in drinking water (100 mg/l)
[4] = Enalapril 20 mg/kg in drinking water (100 mg/l), weeks 16-32
[5] = Enalapril 20 mg/kg in drinking water (100 mg/l), weeks 16-32, at 32 weeks
[6] = treatment weeks 16-32, listed as Enalapril

CCOC(=O)[C@H](CCc1ccccc1)N[C@@H](C)C(=O)N1CCC[C@H]1C(=O)O [enalapril, N-(1-ethoxycarbonyl-3-phenylpropyl)-L-ananyl-L-proline, reference compound]
renal BMP-7 expression (in situ hybridization) ([1]; 32 weeks): restored BMP-7 expression at high levels in the collecting duct; also recorded: restored BMP-7 expression in its normal pattern at high levels; also recorded: restored the normal distribution of BMP-7 expression
renal Wnt4 expression (in situ hybridization) ([1]; 32 weeks): without affecting Wnt4 expression; also recorded: do not affect Wnt4 expression; also recorded: had no effect on Wnt4 expression
monocyte/macrophage tubulointerstitial infiltration ([1]; ED-1 positive cells, 32 weeks): decreased the tubulointerstitial infiltration
Cause-Mortality hypoglycemia [1, 3]: 1/10
Cause-Mortality ketoacidosis [1, 3]: 1/10
Cause-Mortality unknown [1, 3]: 1/10
Body Weight (g) End [1, 4]: 294.9 ± 4.4 g
Body Weight (g) Weight Gain [1, 4]: 78.7 ± 5.9 g
Protein Ex (mg/day), urine protein excretion [1, 5]: 33.59 ± 7.58 mg/day
kidney weight [1, 5]: 1.09 ± 0.04 g
kidney weight ([1]; Enalapril 20 mg/kg in drinking water (100 mg/l), weeks 16-32, at 32 weeks, listed as E): 1.09 ± 0.04 g
Mortality ([1]; Enalapril 20 mg/kg in drinking water (100 mg/l), weeks 16-32, deaths/animals): 3/10
GFR (ml/min/100 g bw) ([1]; Enalapril 20 mg/kg in drinking water (100 mg/l), weeks 16-32, listed as E): 0.58 ± 0.06 ml/min/100 g bw
GFR (ml/min/100 g bw) ([1]; Enalapril 20 mg/kg in drinking water (100 mg/l), weeks 16-32, listed as Enalapril): 0.58±0.06 ml/min/100 g bw
cortical interstitial area / volume ([1]; Enalapril 20 mg/kg, weeks 16-32, DM vehicle 13.1±0.7%): 10.3±0.4%
mesangial matrix accumulation (in words) [1]: more mesangial matrix accumulation
mesangial matrix accumulation (in words) ([1]; listed as Enalapril): less effective than intermediate or high dose BMP-7 in eliminating accumulation of mesangial matrix
glomerulosclerosis (in words) ([1]; treatment weeks 16-32): decreased glomerular sclerosis; also recorded: markedly reduced
urine protein excretion / proteinuria / albuminuria (in words) ([1]; treatment weeks 16-32): reversed
GFR (in words) ([1]; treatment weeks 16-32, versus vehicle-treated diabetic and normal rats): normal or greater; also recorded: restored GFR to normal or slightly above normal
kidney weight / renal hypertrophy (in words) [1]: partially reversed diabetic renal hypertrophy
kidney weight / renal hypertrophy (in words) ([1]; listed as Enalapril): equal in partially reversing kidney hypertrophy; also recorded: equally effective
glomerular area / glomerular hypertrophy (in words) [1, 6]: significantly decreased; also recorded: equally effective
glomerulosclerosis (in words) [1, 6]: less effective in preventing glomerulosclerosis; also recorded: less so by Enalapril
interstitial volume (in words) [1, 6]: significantly decreased; also recorded: equally effective
systolic blood pressure (tail artery cuff) [1, 6]: controlled hypertension throughout the course of therapy; also recorded: reversed the hypertension of the diabetic rats; also recorded: normalized blood pressure during the entire 16 week course of therapy; also recorded: restored blood pressure to normal
Enalapril response: dose and route of administration compared [2]: no difference in the Enalapril response between 5 and 20 mg/kg; also recorded: equally effective as more arduous means of administering Enalapril
decrease in diastolic blood pressure (hypertension): 7.2 mm Hg
decrease in systolic blood pressure (hypertension): 8.2 mm Hg
